One data set deals with UT-7 cells. In words: UT-7 cell proliferation with SCF stimulation as a measure of wild-type KIT activity (CellTiter-Glo). Format: cell-based, human. The conditions noted are these: Homo sapiens, UT7, 72 h, SCF-stimulated UT-7 cell proliferation. The text has this: UT-7 Cell Proliferation with SCF Stimulation Assay as a Measure of Wild-Type KIT Activity
UT-7 cells are human megakaryoblastic leukemia cell lines that can be grown in culture with dependence on granulocyte macrophage colony stimulating factor (GM-CSF) or stem cell factor (SCF). UT-7 cells respond to SCF stimulation by activation of the KIT receptor tyrosine kinase and subsequent downstream signaling that can support cell growth and proliferation (Kuriu et al, 1999; Komatsu et al, 1991; Sasaki et al, 1995). Test compounds were assayed for their ability to inhibit SCF-stimulated proliferation of UT-7 cells.
Inhibition of SCF-stimulated UT-7 cell proliferation was assessed using the CellTiter-Glo assay that quantifies the amount of adenosine triphosphate (ATP) present, which is a readout of metabolically active cells and is directly proportional to the number of viable cells in culture. The ability of test compounds to inhibit SCF-stimulated UT-7 cell proliferation was determined using a 10-point dose curve ranging from 25 μM to 95.4 pM of test compound.
UT-7 cells were maintained in IMDM supplemented with 10% FBS, 5 ng/mL GM-CSF and 100 units/mL Penicillin-Streptomycin and grown in a 37° C. humidified tissue culture incubator. UT-7 cells were washed once with serum free, GM-CSF free IMDM. Cells were then resuspended in IMDM containing 4% FBS and 50 ng/mL SCF and seeded at 2500 cells per well in a volume of 22 μL in a 384-well microplate. A 10-point dose concentration series of test compounds (25.0 μM to 95.4 pM) were then added to the cells in a volume of 3.1 μL to each well (0.25% DMSO final concentration) and placed in a tissue culture incubator (5% CO2, 37° C.) for 72 hours. After 3-days with test compound, CellTiter-Glo reagent was prepared fresh and 25 μL of reagent was added to each well. The plate was mixed by shaking for 10 minutes at RT at 300 rpm on a plate shaker. The plate was read on an EnVision plate reader using the Ultra Sensitive Luminescence protocol for a 384-well plate.
A general note: In ATP-based viability assays light output follows the ATP content of the culture.

Data set [1] is described as follows: Brain penetration in rats, brain to plasma ratios (Kp,brain, Kpuu,brain). Format: in vivo, Sprague-Dawley rats. The conditions noted are these: for Kp uu at 24 h / Kp at 24 h: Sprague-Dawley, rat, brain, intravenous, 1 mg/kg/hr; for Kp at 24 h / Rat Kp: rat brain to plasma ratio; for Kp at 24 h: read-out: Rat Kp. The text has this:
To understand the brain penetration, brain to plasma ratios of the compounds were obtained in Sprague-Dawley (SD) rats. In vivo equilibrium distribution between blood and brain in preclinical species such as rats is a commonly used parameter to evaluate brain penetration. Kp,brain is the ratio of concentrations in brain and blood (Cbrain/Cplasma) The compound's passive diffusion characteristics, its affinity for membrane transporters at the blood-brain barrier (BBB), and the relative drug binding affinity differences between the plasma proteins and brain tissue influence the Kp,brain.
The animals received IV infusion of 1 mg/kg/hr of the compound over 24 hours via jugular vein cannulation. At 24 hours, blood was collected via tail vein bleeding or cardiac puncture (under anesthesia) and centrifuged to obtain plasma samples. Brain tissues were collected and homogenized with phosphate-buffered saline (PBS). The concentrations of the compounds were obtained in the plasma and brain homogenates by LC-MS/MS analysis.

The target in a further data set is wt KIT kinase (Homo sapiens (Human), UniProt P10721). The data set is described as follows: Wild-type KIT binding assay (Kd determination, phage-tagged kinase, qPCR). The protocol: Kd Determinations. For most assays, including wt KIT kinase, kinase-tagged T7 phage strains were prepared in an E. coli host derived from the BL21 strain. E. coli were grown to log-phase and infected with T7 phage and incubated with shaking at 32° C. until lysis. […] The liganded beads were blocked with excess biotin and washed with blocking buffer (SeaBlock (Pierce), 1% BSA, 0.05% Tween 20, 1 mM DTT) to remove unbound ligand and to reduce non-specific binding. […] Test compounds were prepared as 111× stocks in 100% DMSO. Kds were determined using an 11-point 3-fold compound dilution series with three DMSO control points. […] The compounds were then diluted directly into the assays such that the final concentration of DMSO was 0.9%. All reactions were performed in polypropylene 384-well plate. Each was a final volume of 0.02 ml. […] The kinase concentration in the eluates was measured by qPCR.
Binding Constants (Kds). Binding constants (Kds) were calculated with a standard dose-response curve using the Hill equation: Response=Background+Signal−Background 1+(KdHill Slope/DoseHill Slope). The Hill Slope was set to −1. Curves were fitted using a non-linear least square fit with the Levenberg-Marquardt algorithm.
In general terms: Quantitative PCR measures a nucleic acid by following its amplification.

The target of data set [2] is KIT D816V (Homo sapiens (Human), UniProt P10721, D816V). The data set is described as follows: KIT D816V biochemical enzymatic activity assay (EZReader 2 mobility shift). The conditions noted are these: at APPKM for ATP, 20 μM ATP, 60 minutes. The text has this: (§1) PDGFRα and KIT enzymatic activity was monitored using the Perkin Elmer electrophoretic mobility shift technology platform, the EZReader 2.
(§2) Within the linear, steady-state phase of the kinase enzymatic reaction, the mixed pool of phosphorylated (product) and non-phosphorylated (substrate) peptides was passed through the microfluidic system of the PerkinElmer EZ Reader 2, under an applied electric potential difference. The presence of the phosphate group on the product peptide provided a difference in mass and charge between that of the substrate peptide, resulting in a separation of the substrate and product pools in the sample (Perrin et al., Expert Opin Drug Discovery 2010 Jan. 5(1):51-63).
(§3) As the product and substrate peptide mixture passes the lasers within the instrument, these pools are detected (λex=488 nm, λem=568 nm) and resolved as separate peaks. The ratio between these peaks reflects the activity of the compound at that concentration, in that well, under those conditions.
(§4) All test articles were dissolved in 100% DMSO at a stock concentration of 10 mM. A 100×, 10-point, 4-fold serial dilution of all test compounds was created in 100% DMSO, starting at a relevant concentration, usually 1 mM. A volume of 0.130 μL of each concentration was transferred to the relevant well of a 384-well assay plate (Greiner 781 201) using a TTPLabtech Mosquito nano-liter dispenser. Using the Multidrop, the remaining constituents of the reaction were then added to the 0.130 μL of compound as follows:
The plate was read on a Caliper EZReader 2.

A further data set deals with PDGFRα D842V (Homo sapiens (Human), UniProt P16234, D842V). In words: PDGFRα D842V biochemical enzymatic activity assay (EZReader 2 mobility shift). The conditions noted are these: at APPKM for ATP, 25 μM ATP, 90 minutes.
Source text: as §1, §2, §3
Inhibition of KIT (D816V) PDGFRα (D842V) Mutant Biochemical Enzymatic Activity
as §4
The reaction was stopped by the addition of 70 μl of Stop buffer (100 mM HEPES pH 7.5, 0.015% Brij 35, 35 mM EDTA and 0.2% of Coating Reagent 3, Caliper Lifesciences). The plate was read on a Caliper EZReader 2.

Data set [3] has as its target KIT D816V (Homo sapiens (Human), UniProt P10721, D816V/V560G). In words: HMC1.2 autophosphorylation assay (phospho-Y719 KIT AlphaLISA). The conditions noted are these: HMC1.2 cell line, KIT autophosphorylation at tyrosine 719, 90 minutes; read-out: KIT (P-KIT HMC1.2 (nM)). It is filed as cell-based. The protocol:
10,000 HMC1.2 cells were incubated in 22 μL culture media (phenol-red free IMDM, no serum) in each well of a 384-well plate and serum starved overnight in a tissue culture incubator (5% CO2, 37° C.). […] 10 μL of 100 μg/mL streptavidin donor beads (Perkin Elmer) were added to each well, blocked from light with solid black adhesive and shaken at 300 rpm at room temperature for 2 hours. Fluorescence signal was obtained on Envision (Perkin Elmer) by AlphaScreen 384 well HTS protocol.
For orientation: In Alpha technology, singlet oxygen from a donor bead excites a nearby acceptor bead.

[4] abbreviates: homogenate rat brain, read-out: Rat Kp, uu Homogenate.
Where [5] appears, read: rat brain slice, read-out: Rat Kp, uu Brain slice.

The term Kp denotes tissue or fluid exposure divided by exposure in the circulation. The term Kd denotes the concentration at which binding is half-saturated. A higher Kd goes with a looser complex.

Like-named read-outs stand apart in the source and are kept apart here.

Sequence of KIT D816V (Homo sapiens (Human), UniProt P10721, D816V/V560G) (P10721 26-976 V560G/D816V): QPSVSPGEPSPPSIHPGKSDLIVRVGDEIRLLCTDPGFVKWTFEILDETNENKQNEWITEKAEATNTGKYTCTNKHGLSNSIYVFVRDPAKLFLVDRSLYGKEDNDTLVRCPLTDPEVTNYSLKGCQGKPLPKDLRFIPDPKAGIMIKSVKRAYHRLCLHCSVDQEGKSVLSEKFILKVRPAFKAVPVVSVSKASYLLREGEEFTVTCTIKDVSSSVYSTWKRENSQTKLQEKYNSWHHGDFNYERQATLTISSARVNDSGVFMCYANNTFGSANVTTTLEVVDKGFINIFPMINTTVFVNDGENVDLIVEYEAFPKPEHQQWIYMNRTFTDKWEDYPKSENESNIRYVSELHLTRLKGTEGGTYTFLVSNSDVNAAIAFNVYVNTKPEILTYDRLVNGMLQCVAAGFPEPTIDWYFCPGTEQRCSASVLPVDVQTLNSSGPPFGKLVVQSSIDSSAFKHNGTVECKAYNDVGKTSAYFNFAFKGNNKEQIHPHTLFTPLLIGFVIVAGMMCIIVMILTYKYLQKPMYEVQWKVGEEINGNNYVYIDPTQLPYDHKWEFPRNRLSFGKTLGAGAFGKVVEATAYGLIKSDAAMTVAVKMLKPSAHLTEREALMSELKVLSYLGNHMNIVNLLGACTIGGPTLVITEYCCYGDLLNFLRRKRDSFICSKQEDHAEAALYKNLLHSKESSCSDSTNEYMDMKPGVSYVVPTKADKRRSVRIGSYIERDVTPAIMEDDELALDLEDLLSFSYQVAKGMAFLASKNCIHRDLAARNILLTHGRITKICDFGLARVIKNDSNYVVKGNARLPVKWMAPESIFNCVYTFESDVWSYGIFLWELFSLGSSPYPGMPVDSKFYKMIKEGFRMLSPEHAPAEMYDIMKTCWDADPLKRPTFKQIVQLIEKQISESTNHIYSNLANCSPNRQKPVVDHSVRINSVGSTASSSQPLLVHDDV
Sequence of wt KIT kinase (P10721 26-976): as the sequence (P10721 26-976 V560G/D816V) above, with G535V, V791D counted along it
Sequence of KIT D816V (Homo sapiens (Human), UniProt P10721, D816V) (P10721 26-976 D816V): as the sequence (P10721 26-976 V560G/D816V) above, with G535V counted along it
Sequence of PDGFRα D842V (P16234 24-1089 D842V): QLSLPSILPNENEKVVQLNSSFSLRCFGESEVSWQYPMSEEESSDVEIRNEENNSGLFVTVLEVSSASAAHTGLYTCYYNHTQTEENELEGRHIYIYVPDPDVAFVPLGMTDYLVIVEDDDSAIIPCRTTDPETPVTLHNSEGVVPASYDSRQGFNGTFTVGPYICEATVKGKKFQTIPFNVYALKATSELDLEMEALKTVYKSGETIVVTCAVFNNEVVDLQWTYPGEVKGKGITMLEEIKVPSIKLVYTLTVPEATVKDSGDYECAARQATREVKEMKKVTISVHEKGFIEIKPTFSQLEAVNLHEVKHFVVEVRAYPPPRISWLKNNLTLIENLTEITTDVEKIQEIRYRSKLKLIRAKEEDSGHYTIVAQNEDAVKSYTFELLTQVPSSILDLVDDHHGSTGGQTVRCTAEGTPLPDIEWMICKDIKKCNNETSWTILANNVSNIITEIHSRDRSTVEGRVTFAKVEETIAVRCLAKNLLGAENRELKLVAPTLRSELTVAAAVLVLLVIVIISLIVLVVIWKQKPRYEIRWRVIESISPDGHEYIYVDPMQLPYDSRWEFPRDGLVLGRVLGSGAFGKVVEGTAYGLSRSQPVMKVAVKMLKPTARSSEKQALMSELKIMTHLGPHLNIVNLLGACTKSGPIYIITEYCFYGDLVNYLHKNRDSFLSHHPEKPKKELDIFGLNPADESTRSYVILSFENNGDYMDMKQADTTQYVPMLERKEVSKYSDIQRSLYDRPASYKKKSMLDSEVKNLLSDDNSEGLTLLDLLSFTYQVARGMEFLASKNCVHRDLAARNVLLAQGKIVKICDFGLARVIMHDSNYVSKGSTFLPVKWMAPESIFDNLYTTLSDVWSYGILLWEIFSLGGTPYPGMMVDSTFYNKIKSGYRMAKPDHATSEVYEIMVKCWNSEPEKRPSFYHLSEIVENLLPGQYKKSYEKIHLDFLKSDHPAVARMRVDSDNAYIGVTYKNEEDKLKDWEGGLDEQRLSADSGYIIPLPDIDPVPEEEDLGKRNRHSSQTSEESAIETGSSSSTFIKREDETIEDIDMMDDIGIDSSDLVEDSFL

On to `C[C@](N)(c1ccc(F)cc1)c1cnc(N2CCN(c3ncnn4cc(-c5cnn([C@@H]6CCOC6)c5)cc34)CC2)nc1` [Compound 14, (S)-1-(4-Fluorophenyl)-1-(2-(4-(6-(1-((R)-tetrahydrofuran-3-yl)-1H-pyrazol-4-yl)pyrrolo[2,1-f][1,2,4]triazin-4-yl)piperazin-1-yl)pyrimidin-5-yl)ethanamine], for which the IC50 in the data set on UT-7 cells was 150 to 200 nM; on KIT D816V [2], at most 0.3 nM; at PDGFRα D842V, at most 0.3 nM; at KIT D816V [3], under 4.5 nM. The Kp uu at 24 h in data set [1] (setting [4]) came to 0.22. Moreover, the Kp at 24 h in data set [1] is under 0.39. Moreover, the “Rat Kp” value in data set [1] is 0.35. The compound further showed a Kd at wt KIT kinase of under 10 nM.

Turning to `C[C@](N)(c1ccc(F)cc1)c1cnc(N2CCN(c3ncnn4cc(-c5cnn(CC6COC6)c5)cc34)CC2)nc1` [Compound 8, (S)-1-(4-fluorophenyl)-1-(2-(4-(6-(1-(oxetan-3-ylmethyl)-1H-pyrazol-4-yl)pyrrolo[2,1-f][1,2,4]triazin-4-yl)piperazin-1-yl)pyrimidin-5-yl)ethan-1-amine], the IC50 is under 90 nM with UT-7 cells, at most 0.3 nM at KIT D816V [2], at most 0.3 nM on PDGFRα D842V and under 4.5 nM on KIT D816V [3]. Moreover, the Kp uu at 24 h in data set [1] (setting [4]) is at most 0.2; in data set [1] (setting [5]), at most 0.1. Also, the Kp at 24 h in data set [1] amounted to 0.43. The Kd at wt KIT kinase was under 10 nM.

Regarding `C[C@](N)(c1ccc(F)cc1)c1cnc(N2CCN(c3ncnn4cc(-c5cnn([C@@H]6COC[C@H]6O)c5)cc34)CC2)nc1` (single isomer, unassigned) [Compound 19], the IC50 is 90.1 to 150 nM with UT-7 cells, at most 0.3 nM on KIT D816V [2], at most 0.3 nM at PDGFRα D842V and under 4.5 nM at KIT D816V [3]. Further, the Kp uu at 24 h in data set [1] (setting [5]) turned out to be 0.04. Besides, the Kd on wt KIT kinase was under 10 nM.

Regarding `C[C@](N)(c1ccc(F)cc1)c1cnc(N2CCN(c3ncnn4cc(-c5cnn([C@H]6CCOC6)c5)cc34)CC2)nc1` [Compound 15, (S)-1-(4-Fluorophenyl)-1-(2-(4-(6-(1-((S)-tetrahydrofuran-3-yl)-1H-pyrazol-4-yl)pyrrolo[2,1-f][1,2,4]triazin-4-yl)piperazin-1-yl)pyrimidin-5-yl)ethanamine], the IC50 was 150 to 200 nM in the data set on UT-7 cells, at most 0.3 nM on KIT D816V [2], at most 0.3 nM on PDGFRα D842V and under 4.5 nM at KIT D816V [3]. The Kp uu at 24 h in data set [1] (setting [4]) was 0.62; in data set [1] (setting [5]), at most 0.1. In addition, the Kp at 24 h in data set [1] was found to be 0.9. The same compound yielded a Kd at wt KIT kinase of under 10 nM.

For `C[C@](N)(c1ccc(F)cc1)c1cnc(N2CCN(c3ncnn4cc(-c5cnn([C@H]6C[C@@H](O)C6)c5)cc34)CC2)nc1` [Compound 10, cis-3-(4-(4-(4-(5-((S)-1-Amino-1-(4-fluorophenyl)ethyl)pyrimidin-2-yl)piperazin-1-yl)pyrrolo[2,1-f][1,2,4]triazin-6-yl)-1H-pyrazol-1-yl)cyclobutanol], the IC50 is under 90 nM in the data set on UT-7 cells, 0.31 to 1 nM on KIT D816V [2], at most 0.3 nM at PDGFRα D842V and under 4.5 nM on KIT D816V [3]. Further, the “Rat Kp” value in data set [1] turned out to be 0.23. In addition, the Kd on wt KIT kinase is under 10 nM.

With `C[C@](N)(c1ccc(F)cc1)c1cnc(N2CCN(c3ncnn4cc(-c5cnn(C6CCOCC6)c5)cc34)CC2)nc1` [Compound 16, (S)-1-(4-Fluorophenyl)-1-(2-(4-(6-(1-(tetrahydro-2H-pyran-4-yl)-1H-pyrazol-4-yl)pyrrolo[2,1-f][1,2,4]triazin-4-yl)piperazin-1-yl)pyrimidin-5-yl)ethan-1-amine], the IC50 is 150 to 200 nM in the data set with UT-7 cells, at most 0.3 nM on KIT D816V [2], at most 0.3 nM on PDGFRα D842V and 4.6 to 10 nM on KIT D816V [3]. Besides, the Kp uu at 24 h in data set [1] (setting [4]) was at most 0.2; in data set [1] (setting [5]), at most 0.1. Also, in data set [1], the Kp at 24 h came out at 0.93. The compound also had a Kd on wt KIT kinase of under 10 nM.

With `C[C@](N)(c1ccc(F)cc1)c1cnc(N2CCN(c3ncnn4cc(-c5cnn([C@H]6CC[C@@H]6O)c5)cc34)CC2)nc1` (single isomer, unassigned) [Compound 21], the IC50 is 90.1 to 150 nM in the data set with UT-7 cells, 0.31 to 1 nM at KIT D816V [2], at most 0.3 nM on PDGFRα D842V and under 4.5 nM at KIT D816V [3]. Moreover, the Kp uu at 24 h in data set [1] (setting [4]) is 0.36; in data set [1] (setting [5]), at most 0.1. For the same compound, the Kd on wt KIT kinase was under 10 nM.

The values are drawn from US10829493B2, “Compositions and methods for treating KIT- and PDGFRA-mediated diseases” (Blueprint Medicines Corporation, priority 2019, dated 2020).
